Source: US6389740B1, “Lethal mosquito breeding container” (The United States of America as represented by the …, priority 1997, dated 2002)
Read-outs that look alike come from different tables or passages of the source.

What was measured:
[1] = 2 year beagle; cited from earlier work
[2] = rat, 90 day period; cited from earlier work
mosquitoes = assay: Caged mortality test of egg laying structures returned after one month in the field; settings: paper paddles returned to the lab after one month in the field
Procedure: A field test of a lethal breeding container according to Example 2, containing 0.87 deltramethrin on the egg laying structure, was conducted at three military housing sites in the Rio de Janeiro area of Brazil. At each housing site, six houses were selected to receive the lethal breeding containers. About 500 meters away, six houses were selected to serve as control units.
After one month in the field, the egg laying structures from the lethal container breeding containers were dried and shipped to the U.S. for testing. Four egg laying structures from outside lethal mosquito breeding containers and four egg laying structures from inside lethal mosquito breeding containers were reused in lethal. mosquito breeding containers and the mortality rate was determined.
A 1 cubic foot mosquito cage was used. The mosquitoes are given a blood meal at day 4 to 6 after post-emergence. […]
The mortality rate is determined by counting the number of deceased mosquitoes and live mosquitoes, adding these numbers together to arrive at the total number of mosquitoes exposed, and then dividing number of deceased mosquitoes by the total number of mosquitoes and multiplying that quotient by 100%. […]

In the case of `CC1(C)[C@H](C(=O)O[C@H](C#N)c2cccc(Oc3ccccc3)c2)[C@@H]1C=C(Br)Br` [deltamethrin], the NOEL [1] is listed as 1 mg/kg/day, the NOEL [2] is listed as 1 mg/kg/day and the “average mortality in caged tests” value (mosquitoes) is listed as 80%.
